# Test results published in patent publication US20250084079A1, “COMPOSITIONS AND METHODS FOR INHIBITION OF RAS” (TheRas, Inc., priority 2022, published 2025).
# Like-named read-outs stand apart in the source and are kept apart here.
# Columns and labels:
# [1] = target: T1, Avi-KRAS G12D (1-169) GppNHp/RAF1 RBD-3xFLAG (52-151) (Homo sapiens, UniProt P01116, G12D); assay: RAS-effector PPI HTRF disruption assay, Raf1-GppNHp-KRAS G12D; assay type: biochemical
# T1 construct: 100 nM Avi-KRAS G12D (1-169) GppNHp
# T1 sequence (P01116 1-169 isoform P01116-2 G12D): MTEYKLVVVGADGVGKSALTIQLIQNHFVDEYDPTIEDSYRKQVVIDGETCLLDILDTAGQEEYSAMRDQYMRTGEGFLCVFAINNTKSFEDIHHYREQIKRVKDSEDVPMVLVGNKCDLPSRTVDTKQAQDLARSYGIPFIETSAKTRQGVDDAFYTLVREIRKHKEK
# Summary of the method: (§1)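 Compounds titrated 100-0.02 μM (3-fold, 10 points) against GppNHp-loaded KRAS-effector complexes: PI3KCA with G12D/Q25A at 375 nM; RAF1 RBD with G12D at 100 nM, G12V or WT at 50 nM. Two 1 h room-temperature incubations; HTRF signal normalised to DMSO as 100%, IC50 derived.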
# GDP KRAS G12D = GDP KRAS G12D (Homo sapiens, UniProt P01116, G12D); assay: SPR binding affinity to GDP KRAS G12D (Biacore S200); details: GDP-loaded KRAS G12D, steady state KD
# Sequence of GDP KRAS G12D (P01116 1-188 isoform P01116-2 G12D): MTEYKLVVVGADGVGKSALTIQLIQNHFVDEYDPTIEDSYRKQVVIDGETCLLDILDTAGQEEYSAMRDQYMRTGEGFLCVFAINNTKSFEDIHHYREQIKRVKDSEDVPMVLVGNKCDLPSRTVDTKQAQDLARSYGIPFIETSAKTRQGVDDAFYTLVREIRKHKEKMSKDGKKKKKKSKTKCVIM
# Procedure: (§2) The affinity of compounds of the present disclosure to RAS ligands was assessed using surface plasmon resonance (SPR) binding analysis using a Biacore S200 (GE Healthcare Life Sciences) instrument. The SPR binding analysis employed the following reagents and protocols:
# (§3) Buffer preparation: To make 0.5 L add required amounts of stocks for: 20 mM Hepes, 150 mM NaCl, 5 mM MgCl2, 1 mM TCEP, 0.05% P20, and 5 μM nucleotide. Adjust pH to 7.4, then bring volume up to 475 mL 1.05×Filter through 0.2 μm cellulose acetate membrane. Remove a volume of buffer as No DMSO Buffer 1.05× and set aside. Add appropriate volume of DMSO to buffer to a final concentration 5% DMSO.
# (§4) Chip preparation: Prime 2× with 5% DMSO buffer. Allow system to flow on standby throughout the day.
# (§5) Sample preparation: Make a 20× compound solution in 100% DMSO of highest compound concentration to be screened (2 mM for final 100 μM compound). Add appropriate volume of 1.05× buffer without DMSO to give 5% DMSO and mix by pipetting. Centrifuge sample 18,000×g 5 min 25° C. Make appropriate serial dilutions from the highest concentration into 5% DMSO running buffer for the concentrations needed. Prepare 5.8% DMSO and 4.5% DMSO solvent correction solutions using buffer without DMSO. Make two more solvent corrections by mixing 200 μL 4.5% 500 μL 5.8%, and 400 μL 4.5% 300 μL 5.8%
# (§6) Capture Avi-taggedprotein: Thaw protein stock on ice, aliquot into single use size and freeze at −80° C. for future use. Dilute protein (avi-KRAS WT, avi-KRAS-G12D, avi-KRAS-G12V, or avi-RhoA) appropriately, to 20 μg/mL to begin in 5% DMSO buffer. Manually inject at 10 μL/min 12 second contact time. Adjust flow and or contact time to achieve desired level of captured protein. When desired level of protein is captured, flow for 10 minutes to stabilize signal.
# (§7) General Binding Level Screen Method: Choose LMW screen template in Fragment/LMW subfolder in Binding screen folder. 30 μL/min high performance injection, 60 sec contact and dissociation time, carry over control, extra wash with 50% DMSO for each injection. Fifteen Startup cycles to condition. Control samples before and after compound samples. For GppNHp loaded KRAS, control is 20 μM Raf1 RBD domain. Adjust this sample to final 5% DMSO to match running buffer. This process is performed at a temperature of 25° C. using a single chip per experiment.
# (§8) Binding affinity determination: Compounds selected from the binding level screen are evaluated in a dose response to determine the binding affinity (KD). Serial dilutions of compounds are prepared and injected over the sensor chip using a flow rate of 30 μL/min with a 60 second contact and dissociation time. After double referencing of the sensorgrams the total level of compound binding at each concentration is calculated. The steady state binding affinity is calculated with a Langmuir binding model assuming a 1:1 interaction with a constrained Rmax using the BIAevaluation software.
# [2] = target: T2, Avi-KRAS G12V (1-169) GppNHp/RAF1 RBD-3xFLAG (52-151) (Homo sapiens, UniProt P01116, G12V); assay: RAS-effector PPI HTRF disruption assay, Raf1-GppNHp-KRAS G12V; assay type: biochemical
# T2 construct: 50 nM Avi-KRAS G12V (1-169) GppNHp
# T2 sequence (P01116 1-169 isoform P01116-2 G12V): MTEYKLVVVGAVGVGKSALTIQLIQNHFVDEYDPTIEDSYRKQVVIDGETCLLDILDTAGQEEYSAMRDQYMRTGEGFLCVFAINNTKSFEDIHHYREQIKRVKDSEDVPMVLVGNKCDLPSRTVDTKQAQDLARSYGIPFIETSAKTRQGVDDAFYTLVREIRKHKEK
# Summary of the method: as §1
# [3] = target: T3, Avi-KRAS G12D/Q25A (1-169) GppNHp/3xFLAG-PI3KCA (157-299) (Homo sapiens, UniProt P01116, G12D/Q25A); assay: RAS-effector PPI HTRF disruption assay, PI3KCA-GppNHp-KRAS G12D/Q25A; assay type: biochemical
# T3 construct: 375 nM Avi-KRAS G12D/Q25A (1-169) GppNHp
# T3 sequence (P01116 1-169 isoform P01116-2 G12D/Q25A): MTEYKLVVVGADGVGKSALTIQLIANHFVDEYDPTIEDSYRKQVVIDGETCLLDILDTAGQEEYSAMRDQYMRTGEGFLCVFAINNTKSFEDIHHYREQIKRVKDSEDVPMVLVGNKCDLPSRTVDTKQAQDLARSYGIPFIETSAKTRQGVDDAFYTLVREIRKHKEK
# Summary of the method: as §1
# [4] = target: T4, Avi-KRAS WT (1-169) GppNHp/RAF1 RBD-3xFLAG (52-151) (Homo sapiens, UniProt P01116); assay: RAS-effector PPI HTRF disruption assay, Raf1-GppNHp-KRAS WT; assay type: biochemical
# T4 construct: 50 nM Avi-KRAS WT (1-169) GppNHp
# T4 sequence (P01116 1-169 isoform P01116-2): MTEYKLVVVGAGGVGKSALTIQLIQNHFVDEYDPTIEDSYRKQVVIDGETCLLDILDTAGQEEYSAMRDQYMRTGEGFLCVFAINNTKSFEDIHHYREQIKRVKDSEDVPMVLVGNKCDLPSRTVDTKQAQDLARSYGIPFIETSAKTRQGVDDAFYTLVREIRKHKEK
# Summary of the method: as §1
# [5] = tested on: pERK in GP2d cells (KRAS G12D); assay: Cell-based pERK HTRF assay in GP2d cell; details: 60 min incubation
# Summary of the method: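 Phospho-ERK was measured by HTRF in lysates of KRAS G12D GP2d cells after 60 min of compound exposure. Nine concentrations were tested, half-log apart from a 1 μM top, with 0.25% DMSO throughout. Cells had been plated the previous day in DMEM with 10% FBS, and the detection antibodies were incubated 4–24 h at room temperature before reading.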
# GppNHp KRAS G12D = GppNHp KRAS G12D (Homo sapiens, UniProt P01116, G12D); assay: SPR binding affinity to GppNHp KRAS G12D (Biacore S200); details: GppNHp-loaded KRAS G12D, steady state KD
# Sequence of GppNHp KRAS G12D (P01116 1-188 isoform P01116-2 G12D): as the sequence (P01116 1-188 isoform P01116-2 G12D) above
# Procedure: as §2, §3, §4, §5, §6, §7, §8
SMILES,IC50 [1] [nM],Kd (GDP KRAS G12D) [nM],IC50 [2] [µM],IC50 [3] [nM],IC50 [4] [nM],"IC50 ([5]; GP2d, 1 h) [nM]",Kd (GppNHp KRAS G12D) [µM],IC50 ([5]; read-out: pERK-Gp2D-1 hr) [nM]
C[C@@H]1C[C@@H](Oc2nc(OC[C@@]34CCCN3C[C@H](F)C4)nc3c(F)c(-c4ccc(F)c5sc(N)c(C#N)c45)ccc23)CN1 [Compound 56],1000 to 10000,–,> 10,100 to 1000,1000 to 10000,100 to 1000,–,–
C[C@H]1NCC[C@@H]1Oc1nc(OC[C@@]23CCCN2C[C@H](F)C3)nc2c(F)c(-c3ccc(F)c4sc(N)c(C#N)c34)c(Cl)cc12 [Compound 59],100 to 1000,–,0.1 to 1,100 to 1000,100 to 1000,≤ 100,–,–
N#Cc1c(N)sc2c(F)ccc(-c3c(C(F)(F)F)cc4c(O[C@@H]5CCN[C@@H]5CF)nc(OC[C@@]56CCCN5C[C@H](F)C6)nc4c3F)c12 [Compound 62],100 to 1000,–,1 to 10,1000 to 10000,100 to 1000,≤ 100,–,–
N#Cc1c(N)sc2c(F)ccc(-c3c(Cl)cc4c(O[C@@H]5CNC[C@@H]5F)nc(OC[C@@]56CCCN5C[C@H](F)C6)nc4c3F)c12 [Compound 63],100 to 1000,–,1 to 10,1000 to 10000,1000 to 10000,100 to 1000,–,–
C[C@@H]1NCC[C@@H]1Oc1nc(OC[C@@]23CCCN2C[C@H](F)C3)nc2c(F)c(-c3ccc(F)c4sc(N)c(C#N)c34)c(Cl)cc12 [Compound 65],100 to 1000,–,0.1 to 1,100 to 1000,100 to 1000,≤ 100,–,–
N#Cc1c(N)sc2c(F)ccc(-c3ccc4c(O[C@H]5CNC[C@H]5F)nc(OC[C@@]56CCCN5C[C@H](F)C6)nc4c3F)c12 [Compound 66],1000 to 10000,–,> 10,1000 to 10000,1000 to 10000,100 to 1000,–,–
N#Cc1c(N)sc2c(F)ccc(-c3c(C(F)(F)F)cc4c(O[C@@H]5CCNC5)nc(N5CC(N6CC7(CC7)C6)C5)nc4c3F)c12 [Compound 67],100 to 1000,–,1 to 10,> 10000,100 to 1000,100 to 1000,–,–
N#Cc1c(N)sc2c(F)ccc(-c3c(Cl)cc4c(O[C@@H]5CN[C@H](CO)C5)nc(OC[C@@]56CCCN5C[C@H](F)C6)nc4c3F)c12 [Compound 70],≤ 100,–,0.1 to 1,100 to 1000,100 to 1000,100 to 1000,–,–
N#Cc1c(N)sc2c(F)ccc(-c3ccc4c(O[C@H]5CNC[C@@H]5F)nc(OC[C@@]56CCCN5C[C@H](F)C6)nc4c3F)c12 [Compound 71],1000 to 10000,–,> 10,1000 to 10000,1000 to 10000,> 1000,–,–
C[C@H]1NCC[C@@H]1Oc1nc(OC[C@@]23CCCN2C[C@H](Cl)C3)nc2c(F)c(-c3ccc(F)c4sc(N)c(C#N)c34)c(C(F)(F)F)cc12 [Compound 72],≤ 100,–,0.1 to 1,100 to 1000,≤ 100,≤ 100,–,–
N#Cc1c(N)sc2c(F)ccc(-c3c(F)cc4c(O[C@@H]5CCNC5)nc(OC[C@@]56CCCN5C[C@H](F)C6)nc4c3F)c12 [Compound 77],> 10000,–,> 10,> 10000,> 10000,> 1000,–,–
N#Cc1c(N)sc2c(F)ccc(-c3ncc4c(O[C@@H]5CCNC5)nc(OC[C@@]56CCCN5C[C@H](F)C6)nc4c3F)c12 [Compound 97],1000 to 10000,–,> 10,> 10000,1000 to 10000,100 to 1000,–,–
"C[C@H]1NCC[C@H]1Oc1nc(OC[C@@]23CCCN2C[C@H](F)C3)nc2c(F)c(-c3ccc(F)c4sc(N)c(C#N)c34)ncc12 [Compound 98, 2-amino-7-fluoro-4-(8-fluoro-2-(((2R,7aS)-2-fluorotetrahydro-1H-pyrrolizin-7a(5H)-yl)methoxy)-4-(((2R,3R)-2-methylpyrrolidin-3-yl)oxy)pyrido[4,3-d]pyrimidin-7-yl)benzo[b]thiophene-3-carbonitrile]",1000 to 10000,–,1 to 10,> 10000,1000 to 10000,100 to 1000,–,–

# The remaining lines, values ahead:
IC50 [1] [nM],Kd (GDP KRAS G12D) [nM],IC50 [2] [µM],IC50 [3] [nM],IC50 [4] [nM],"IC50 ([5]; GP2d, 1 h) [nM]",Kd (GppNHp KRAS G12D) [µM],IC50 ([5]; read-out: pERK-Gp2D-1 hr) [nM],SMILES
100 to 1000,≤ 100,1 to 10,100 to 1000,1000 to 10000,100 to 1000,0.1 to 1,–,"Nc1nc2c(-c3c(C(F)(F)F)cc4c(O[C@H]5CNC[C@@H]5F)nc(OC[C@@]56CCCN5C[C@H](F)C6)nc4c3F)ccc(F)c2s1 (atropisomer, axis not shown) [Compound 17]"
> 10000,100 to 1000,> 10,> 10000,> 10000,–,> 10,–,"Nc1nc2c(-c3c(C(F)(F)F)cc4c(O[C@H]5CNC[C@@H]5F)nc(OC[C@@]56CCCN5C[C@H](F)C6)nc4c3F)ccc(F)c2s1 (atropisomer, axis not shown) [Compound 18]"
> 10000,1000 to 10000,> 10,> 10000,> 10000,–,> 10,–,"C[C@@H]1C[C@@H](Oc2nc(OC[C@@]34CCCN3C[C@H](F)C4)nc3c(F)c(-c4ccc(F)c5sc(N)nc45)c(C(F)(F)F)cc23)CN1 (atropisomer, axis not shown) [Compound 21]"
100 to 1000,–,> 10,1000 to 10000,1000 to 10000,≤ 100,1 to 10,–,C[C@H]1C[C@@H](Oc2nc(OC[C@@]34CCCN3C[C@H](F)C4)nc3c(F)c(-c4ccc(F)c5sc(N)nc45)c(C(F)(F)F)cc23)CN1 [Compound 7]
100 to 1000,–,1 to 10,100 to 1000,100 to 1000,–,–,100 to 1000,C[C@H]1C[C@H](Oc2nc(OC[C@@]34CCCN3C[C@H](F)C4)nc3c(F)c(-c4ccc(F)c5sc(N)c(C#N)c45)c(Cl)cc23)CN1 [Compound 54]
1000 to 10000,–,> 10,1000 to 10000,1000 to 10000,–,–,> 1000,C[C@H]1C[C@H](Oc2nc(OC[C@@]34CCCN3C[C@H](F)C4)nc3c(F)c(-c4ccc(F)c5sc(N)c(C#N)c45)c(Cl)cc23)CN1 [Compound 55]
1000 to 10000,–,> 10,100 to 1000,1000 to 10000,100 to 1000,–,–,Nc1nc2c(-c3c(C(F)(F)F)cc4c(O[C@H]5CN[C@@H](CO)C5)nc(OCC56CCCN5C[C@H](F)C6)nc4c3F)ccc(F)c2s1 (stereo partly drawn) [Compound 58]
